From patent US6861440B2, “DPP IV inhibitors” (Hoffmann-La Roche Inc., priority 2001, dated 2005)

Biological target: T1, human DPP-IV (Homo sapiens, UniProt P27487)
T1 construct: made in house; host or cells: Pichia pastoris
Experiment: DPP-IV activity assay (fluorogenic or colorimetric substrate), IC50 determination
Assay type: biochemical
Settings: natural human DPP-IV from human plasma pool or recombinant human DPP-IV; 37° C., pH 7.8
Experimental: Activity of DPP-IV inhibitors are tested with natural human DPP-IV derived from a human plasma pool or with recombinat human DPP-IV. Human citrate plasma from different donors is pooled, filterted through a 0.2 micron membrane under sterile conditions and aliquots of 1 ml are shock frozen and stored at −120° C. until used. In the calorimetric DPP-IV assay 5 to 10 μl human plasma and in the fluorometric assay 1.0 μl of human plasma in a total assay volume of 100 μl is used as an enzyme source. […] Human DPP-IV is expressed and purified from the cultur medium using conventional column chromatography including size exclusion and anion and cation chromatography. […] In the calorimetric DPP-IV assay 20 ng rec.-h DPP-IV and in the fluorometric assay 2 ng rec-h DPP-IV in a total assay volume of 100 μl is used as an enzyme source.
A 20 mM stock solution in 10% DMF/H2O is stored at −20° C. until use.
A 10 mM stock solution in 10% MeOH/H2O is stored at −20° C. until use.
Fluorescence is detected in a Perkin Elmer Luminescence Spectrometer LS 50B at an excitation wavelength of 400 nm and an emission wavelength of 505 nm continuously every 15 seconds for 10 to 30 minutes. Initial rate constants are calculated by best fit linear regression.
Initial rate constants are calculated by best fit linear regression.
DPP-IV activity assays are performed in 96 well plates at 37° C. in a total assay volume of 100 μl. The assay buffer consists of 50 mM Tris/HCl pH 7.8 containing 0.1 mg/ml BSA and 100 mM NaCl. Test compounds are solved in 100% DMSO, diluted to the desired concentration in 10% DMSO/H2O. The final DMSO concentration in the assay is 1% (v/v). […] Compounds are with (10 minutes at 37° C.) and without preincubation with the enzyme. Enzyme reactions are started with substrate application follwed by immediate mixing.
Kinetic parameters of the enzyme reaction are calculated at at least 5 different substrate concentrations and at least 5 different test compound concentrations.

T1 sequence (P27487 31-766): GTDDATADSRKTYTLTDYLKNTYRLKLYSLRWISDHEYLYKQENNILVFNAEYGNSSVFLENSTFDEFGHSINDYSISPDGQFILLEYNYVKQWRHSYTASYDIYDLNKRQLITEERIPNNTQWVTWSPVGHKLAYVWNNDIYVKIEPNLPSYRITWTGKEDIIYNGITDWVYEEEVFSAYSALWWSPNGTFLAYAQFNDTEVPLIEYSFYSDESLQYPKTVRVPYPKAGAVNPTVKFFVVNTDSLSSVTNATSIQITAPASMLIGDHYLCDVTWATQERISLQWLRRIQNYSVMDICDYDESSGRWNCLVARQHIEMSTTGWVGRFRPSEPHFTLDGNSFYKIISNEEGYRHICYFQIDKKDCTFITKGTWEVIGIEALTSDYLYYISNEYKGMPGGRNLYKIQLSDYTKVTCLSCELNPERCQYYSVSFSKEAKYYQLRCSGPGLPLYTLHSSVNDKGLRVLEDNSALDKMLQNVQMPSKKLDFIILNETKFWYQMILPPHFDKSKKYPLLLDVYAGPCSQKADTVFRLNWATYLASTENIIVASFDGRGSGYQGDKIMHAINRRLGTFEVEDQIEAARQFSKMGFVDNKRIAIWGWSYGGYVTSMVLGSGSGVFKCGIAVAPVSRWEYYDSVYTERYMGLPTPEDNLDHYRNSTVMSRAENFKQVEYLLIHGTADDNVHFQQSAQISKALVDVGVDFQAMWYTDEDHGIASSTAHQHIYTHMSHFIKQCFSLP

SMILES | IC50
Cc1c(C)n(C[C@H](C)NCC(=O)N2CCC[C@H]2C#N)c2ccccc12 [Example 7, (2S)-1-{[(1S)-2-(2,3-Dimethyl-indol-1-yl)-1-methyl-ethylamino]-acetyl}-pyrrolidine-2-carbonitrile] | 88 nM
COc1cc2c(C(=O)C(F)(F)F)cn(C[C@H](C)NCC(=O)N3CCC[C@H]3C#N)c2cc1OC [Example 23, (2S)-1-{[(1S)-2-(5,6-Dimethoxy-3-trifluoroacetyl-indol-1-yl)-1-methyl-ethylamino]-acetyl}-pyrrolidine-2-carbonitrile] | 128 nM
CC(C)(CNc1cccc(-c2ccccc2)n1)NCC(=O)N1CCC[C@H]1C#N [Example 129, (2S)-1-{[1,1-Dimethyl-2-(6-phenyl-pyridin-2-ylamino)-ethylamino]-acetyl}-pyrrolidine-2-carbonitrile] | 1 nM
CC(C)(CNc1ccc(-c2cccc(C(F)(F)F)c2)cn1)NCC(=O)N1CCC[C@H]1C#N [Example 119, (2S)-1-({1,1-Dimethyl-2-[5-(3-trifluoromethyl-phenyl)-pyridin-2-ylamino]-ethylamino}-acetyl)-pyrrolidine-2-carbonitrile] | 7 nM
Cc1cccc(-c2nc(CC(C)(C)NCC(=O)N3CCC[C@H]3C#N)c(C)[nH]2)c1 [Example 188, (2S)-1-{[1,1-Dimethyl-2-(5-methyl-2-m-tolyl-1H-imidazol-4-yl)-ethylamino]-acetyl}-pyrrolidine-2-carbonitrile] | 1 nM
